Laboratory results: the NIST ThermoML archive (doi:10.1021/je501041r)
Numbers after ± are expanded uncertainties.

Assay: xn = mol fraction of the nth substance listed
Conditions: 101 kPa, Liquid; for viscosity: Capillary tube (Ostwald / Ubbelohde) method; for mass density: Vibrating tube method

CCCCCO [pentan-1-ol] + CC(C)CC(C)(C)C
Conditions | mass density [kg/m3] | viscosity [mPa·s]
298.15 K, x2 = 0 | 810.59 ± 2 | 3.458 ± 0.042
298.15 K, x2 = 0.1004 | 794.33 ± 2 | 2.615 ± 0.032
298.15 K, x2 = 0.2003 | 778.35 ± 2 | 1.984 ± 0.024
298.15 K, x2 = 0.3 | 763.77 ± 2 | 1.525 ± 0.018
298.15 K, x2 = 0.4 | 749.96 ± 2 | 1.189 ± 0.014
298.15 K, x2 = 0.5 | 737.18 ± 2 | 0.948 ± 0.011
298.15 K, x2 = 0.5999 | 725.64 ± 2 | 0.785 ± 0.009
298.15 K, x2 = 0.6998 | 714.97 ± 2 | 0.663 ± 0.008
298.15 K, x2 = 0.7999 | 705.08 ± 2 | 0.579 ± 0.007
298.15 K, x2 = 0.8996 | 696.03 ± 2 | 0.518 ± 0.006
303.15 K, x2 = 0 | 807.89 ± 2 | 3.007 ± 0.037
303.15 K, x2 = 0.1004 | 790.55 ± 2 | 2.291 ± 0.028
303.15 K, x2 = 0.2003 | 774.49 ± 2 | 1.758 ± 0.021
303.15 K, x2 = 0.3 | 759.83 ± 2 | 1.365 ± 0.016
303.15 K, x2 = 0.4 | 745.97 ± 2 | 1.076 ± 0.013
303.15 K, x2 = 0.5 | 733.13 ± 2 | 0.867 ± 0.01
303.15 K, x2 = 0.5999 | 721.55 ± 2 | 0.724 ± 0.009
303.15 K, x2 = 0.6998 | 710.84 ± 2 | 0.623 ± 0.007
303.15 K, x2 = 0.7999 | 700.93 ± 2 | 0.552 ± 0.007
303.15 K, x2 = 0.8996 | 691.85 ± 2 | 0.49 ± 0.006
308.15 K, x2 = 0 | 804.16 ± 2 | 2.625 ± 0.032
308.15 K, x2 = 0.1004 | 786.73 ± 2 | 2.038 ± 0.025
308.15 K, x2 = 0.2003 | 770.6 ± 2 | 1.562 ± 0.019
308.15 K, x2 = 0.3 | 755.86 ± 2 | 1.225 ± 0.015
308.15 K, x2 = 0.4 | 741.94 ± 2 | 0.977 ± 0.012
308.15 K, x2 = 0.5 | 729.05 ± 2 | 0.797 ± 0.01
308.15 K, x2 = 0.5999 | 717.43 ± 2 | 0.671 ± 0.008
308.15 K, x2 = 0.6998 | 706.68 ± 2 | 0.579 ± 0.007
308.15 K, x2 = 0.7999 | 696.74 ± 2 | 0.513 ± 0.006
308.15 K, x2 = 0.8996 | 687.64 ± 2 | 0.466 ± 0.006
313.15 K, x2 = 0 | 800.4 ± 2 | 2.317 ± 0.029
313.15 K, x2 = 0.1004 | 782.88 ± 2 | 1.806 ± 0.022
313.15 K, x2 = 0.2003 | 766.66 ± 2 | 1.403 ± 0.017
313.15 K, x2 = 0.3 | 751.85 ± 2 | 1.105 ± 0.013
313.15 K, x2 = 0.4 | 737.87 ± 2 | 0.89 ± 0.011
313.15 K, x2 = 0.5 | 724.94 ± 2 | 0.734 ± 0.009
313.15 K, x2 = 0.5999 | 713.27 ± 2 | 0.624 ± 0.008
313.15 K, x2 = 0.6998 | 702.49 ± 2 | 0.549 ± 0.007
313.15 K, x2 = 0.7999 | 692.51 ± 2 | 0.482 ± 0.006
313.15 K, x2 = 0.8996 | 683.4 ± 2 | 0.438 ± 0.005
318.15 K, x2 = 0 | 796.59 ± 2 | 2.029 ± 0.025
318.15 K, x2 = 0.1004 | 778.99 ± 2 | 1.618 ± 0.02
318.15 K, x2 = 0.2003 | 762.69 ± 2 | 1.255 ± 0.015
318.15 K, x2 = 0.3 | 747.8 ± 2 | 1.001 ± 0.012
318.15 K, x2 = 0.4 | 733.76 ± 2 | 0.815 ± 0.01
318.15 K, x2 = 0.5 | 720.78 ± 2 | 0.679 ± 0.008
318.15 K, x2 = 0.5999 | 709.06 ± 2 | 0.582 ± 0.007
318.15 K, x2 = 0.6998 | 698.25 ± 2 | 0.518 ± 0.006
318.15 K, x2 = 0.7999 | 688.24 ± 2 | 0.454 ± 0.006
318.15 K, x2 = 0.8996 | 679.11 ± 2 | 0.422 ± 0.005
323.15 K, x2 = 0 | 792.75 ± 2 | 1.795 ± 0.022
323.15 K, x2 = 0.1004 | 775.05 ± 2 | 1.443 ± 0.018
323.15 K, x2 = 0.2003 | 758.67 ± 2 | 1.131 ± 0.014
323.15 K, x2 = 0.3 | 743.71 ± 2 | 0.914 ± 0.011
323.15 K, x2 = 0.4 | 729.61 ± 2 | 0.749 ± 0.009
323.15 K, x2 = 0.5 | 716.58 ± 2 | 0.63 ± 0.008
323.15 K, x2 = 0.5999 | 704.82 ± 2 | 0.548 ± 0.007
323.15 K, x2 = 0.6998 | 693.98 ± 2 | 0.486 ± 0.006
323.15 K, x2 = 0.7999 | 683.93 ± 2 | 0.428 ± 0.005
323.15 K, x2 = 0.8996 | 674.79 ± 2 | 0.393 ± 0.005

CC(C)CC(C)(C)C [2,2,4-trimethylpentane] + CCCO
Conditions | mass density [kg/m3] | viscosity [mPa·s]
298.15 K, x1 = 0.02 | 795.39 ± 2 | –
298.15 K, x1 = 0.04 | 790.82 ± 2 | –
298.15 K, x1 = 0.06 | 786.22 ± 2 | –
298.15 K, x1 = 0.1 | 777.82 ± 2 | 1.518 ± 0.018
298.15 K, x1 = 0.2 | 759.71 ± 2 | 1.231 ± 0.014
298.15 K, x1 = 0.3 | 744.88 ± 2 | 1.007 ± 0.012
298.15 K, x1 = 0.4 | 732.42 ± 2 | 0.84 ± 0.01
298.15 K, x1 = 0.4999 | 721.93 ± 2 | 0.718 ± 0.008
298.15 K, x1 = 0.5996 | 712.88 ± 2 | 0.644 ± 0.008
298.15 K, x1 = 0.6998 | 704.9 ± 2 | 0.572 ± 0.007
298.15 K, x1 = 0.7995 | 698.16 ± 2 | 0.519 ± 0.006
298.15 K, x1 = 0.9 | 692.36 ± 2 | 0.491 ± 0.006
298.15 K, x1 = 1 | 687.82 ± 2 | 0.478 ± 0.006
303.15 K, x1 = 0.02 | 791.36 ± 2 | –
303.15 K, x1 = 0.04 | 786.77 ± 2 | –
303.15 K, x1 = 0.06 | 782.15 ± 2 | –
303.15 K, x1 = 0.1 | 773.72 ± 2 | 1.361 ± 0.016
303.15 K, x1 = 0.2 | 755.54 ± 2 | 1.113 ± 0.013
303.15 K, x1 = 0.3 | 740.67 ± 2 | 0.909 ± 0.011
303.15 K, x1 = 0.4 | 728.17 ± 2 | 0.769 ± 0.009
303.15 K, x1 = 0.4999 | 717.66 ± 2 | 0.664 ± 0.008
303.15 K, x1 = 0.5996 | 708.61 ± 2 | 0.585 ± 0.007
303.15 K, x1 = 0.6998 | 700.62 ± 2 | 0.531 ± 0.006
303.15 K, x1 = 0.7995 | 693.9 ± 2 | 0.488 ± 0.006
303.15 K, x1 = 0.9 | 688.13 ± 2 | 0.464 ± 0.006
303.15 K, x1 = 1 | 683.68 ± 2 | 0.453 ± 0.005
308.15 K, x1 = 0.02 | 787.26 ± 2 | –
308.15 K, x1 = 0.04 | 782.66 ± 2 | –
308.15 K, x1 = 0.06 | 778.03 ± 2 | –
308.15 K, x1 = 0.1 | 769.57 ± 2 | 1.223 ± 0.014
308.15 K, x1 = 0.2 | 751.33 ± 2 | 1.004 ± 0.012
308.15 K, x1 = 0.3 | 736.41 ± 2 | 0.831 ± 0.01
308.15 K, x1 = 0.4 | 723.88 ± 2 | 0.709 ± 0.008
308.15 K, x1 = 0.4999 | 713.35 ± 2 | 0.613 ± 0.007
308.15 K, x1 = 0.5996 | 704.28 ± 2 | 0.543 ± 0.006
308.15 K, x1 = 0.6998 | 696.31 ± 2 | 0.5 ± 0.006
308.15 K, x1 = 0.7995 | 689.61 ± 2 | 0.46 ± 0.006
308.15 K, x1 = 0.9 | 683.86 ± 2 | 0.438 ± 0.005
308.15 K, x1 = 1 | 679.52 ± 2 | 0.429 ± 0.005
313.15 K, x1 = 0.02 | 783.12 ± 2 | –
313.15 K, x1 = 0.04 | 778.51 ± 2 | –
313.15 K, x1 = 0.06 | 773.86 ± 2 | –
313.15 K, x1 = 0.1 | 765.38 ± 2 | 1.1 ± 0.013
313.15 K, x1 = 0.2 | 747.08 ± 2 | 0.92 ± 0.011
313.15 K, x1 = 0.3 | 732.1 ± 2 | 0.758 ± 0.009
313.15 K, x1 = 0.4 | 719.54 ± 2 | 0.648 ± 0.008
313.15 K, x1 = 0.4999 | 708.99 ± 2 | 0.569 ± 0.007
313.15 K, x1 = 0.5996 | 699.91 ± 2 | 0.51 ± 0.006
313.15 K, x1 = 0.6998 | 691.95 ± 2 | 0.467 ± 0.006
313.15 K, x1 = 0.7995 | 685.26 ± 2 | 0.434 ± 0.005
313.15 K, x1 = 0.9 | 679.55 ± 2 | 0.414 ± 0.005
313.15 K, x1 = 1 | 675.32 ± 2 | 0.408 ± 0.005
318.15 K, x1 = 0.02 | 778.94 ± 2 | –
318.15 K, x1 = 0.04 | 774.31 ± 2 | –
318.15 K, x1 = 0.06 | 769.64 ± 2 | –
318.15 K, x1 = 0.1 | 761.14 ± 2 | 0.994 ± 0.012
318.15 K, x1 = 0.2 | 742.76 ± 2 | 0.833 ± 0.01
318.15 K, x1 = 0.3 | 727.73 ± 2 | 0.693 ± 0.008
318.15 K, x1 = 0.4 | 715.13 ± 2 | 0.596 ± 0.007
318.15 K, x1 = 0.4999 | 704.58 ± 2 | 0.529 ± 0.006
318.15 K, x1 = 0.5996 | 695.48 ± 2 | 0.479 ± 0.006
318.15 K, x1 = 0.6998 | 687.53 ± 2 | 0.439 ± 0.005
318.15 K, x1 = 0.7995 | 680.87 ± 2 | 0.41 ± 0.005
318.15 K, x1 = 0.9 | 675.2 ± 2 | 0.393 ± 0.005
318.15 K, x1 = 1 | 671.1 ± 2 | 0.388 ± 0.005
323.15 K, x1 = 0.02 | 774.7 ± 2 | –
323.15 K, x1 = 0.04 | 770.05 ± 2 | –
323.15 K, x1 = 0.06 | 765.36 ± 2 | –
323.15 K, x1 = 0.1 | 756.84 ± 2 | 0.903 ± 0.011
323.15 K, x1 = 0.2 | 738.39 ± 2 | 0.767 ± 0.009
323.15 K, x1 = 0.3 | 723.3 ± 2 | 0.648 ± 0.008
323.15 K, x1 = 0.4 | 710.67 ± 2 | 0.554 ± 0.007
323.15 K, x1 = 0.4999 | 700.11 ± 2 | 0.491 ± 0.006
323.15 K, x1 = 0.5996 | 691 ± 2 | 0.445 ± 0.005
323.15 K, x1 = 0.6998 | 683.07 ± 2 | 0.413 ± 0.005
323.15 K, x1 = 0.7995 | 676.44 ± 2 | 0.388 ± 0.005
323.15 K, x1 = 0.9 | 670.81 ± 2 | 0.373 ± 0.005
323.15 K, x1 = 1 | 666.85 ± 2 | 0.369 ± 0.005
